From patent US10414779B2, “Fused [1,2]imidazo[4,5-C] ring compounds substituted with guanidino groups” (3M INNOVATIVE PROPERTIES COMPANY, priority 2016, dated 2019) come the findings set out here.

Assay [1] concerns Human peripheral blood mononuclear cells (PBMC). The assay is described as follows: Cytokine induction in human cells (PBMC), IFN-gamma by multiplex bead assay. The format is cell-based. The note with it: 21-24 hrs, lowest concentration inducing cytokine at least 2× negative control, tested at 10, 1, 0.1, 0.01, 0.001, 0.0001 micromolar. Here is the method: (§1) Cytokine Induction in Human Cells
(§2) Whole blood was obtained from healthy human donors and collected by venipuncture into vacutainer tubes or syringes containing EDTA. Human peripheral blood mononuclear cells (PBMC) were purified from the whole blood by density gradient centrifugation. Histopaque 1077 (15 mL, Sigma, St. Louis, Mo.) was transferred to 6×50 mL sterile polypropylene conical tubes. The Histopaque was overlayed with 15-25 mL of blood diluted 1:2 in Hank's Balanced Salts Solution (HBSS) (Gibco, Life Technology, Grand Island N.Y.). The tubes were then centrifuged at 1370 rpm for 30 minutes at 20° C., with no brake (400×g, GH 3.8A Rotor).
(§3) The interface (buffy coat) containing the PBMC was collected and placed in a new sterile 50 mL conical polypropylene centrifuge tube. […]
(§4) The number of viable cells were determined by counting with a Miltenyi FACS instrument (Miltenyi Biotec Inc., San Diego, Calif.) or by using a hemacytometer. […] Ten microliters of the diluted cells were then applied to the hemacytometer, and the number of viable PBMC were determined by microscopy. […]
(§5) IFN-alpha cytokine levels (pg/mL) were measured by ELISA (human IFN-α, pan specific, Mabtech, Cinncinnati, Ohio), IFN-gamma, TNF-alpha, and IP-10 cytokine levels (pg/mL) were measured by multiplex bead assay (magnetic beads, R & D Systems Minneapolis, Minn.) according to the manufacturer's instructions. […]

For assay [2] the test system is unchanged. The assay is described as follows: Cytokine induction in human cells (PBMC), IFN-alpha by ELISA. It is filed as cell-based. The settings on record: 21-24 hrs, lowest concentration inducing cytokine at least 2× negative control, tested at 10, 1, 0.1, 0.01, 0.001, 0.0001 micromolar. Here is the method: as §1, §2, §3, §4, §5
A general note: In an ELISA, binding on a coated surface is turned into a signal by an enzyme label.

Where a name gives a salt, the structure may show the parent alone.

For `N=C(N)NCCC[C@H]1COCc2nc3c(N)nc4ccccc4c3n21` [Example 1, (11S)-1-{3-[6-amino-10,11-dihydro-8H-[1,4]oxazino[4′,3′:1,2]imidazo[4,5-c]quinolin-11-yl]propyl}guanidine dihydrochloride], the “MEC to Induce Cytokine IFN-gamma” value in assay [1] amounted to 1.0 µM. Besides, the “MEC to Induce Cytokine IFN-alpha” value in assay [2] was 1.0 µM.
